{
  "source": "paper PMC10571957",
  "about": "“αV-Integrin-Dependent Inhibition of Glioblastoma Cell Migration, Invasion and Vasculogenic Mimicry by the uPAcyclin Decapeptide” (Cancers, 2023)",
  "type_in_all_cases": "cell-based, human",
  "key": {"U138-MG cells": {"system": "U138-MG cells", "experiment": "Boyden chamber migration (chemotaxis), U138-MG", "settings": "for migration, % of basal, average 2 expts: mean of 2 expts; for migration, % of basal, average expt 1: mean of expt 1; for migration, % of basal, average expt 2: mean of expt 2; for migration, % of basal, T-test list: single replicates of both expts", "experimental": "(§1) The migration and invasion assays were performed using Boyden chambers and 8 µm pore size PVP-free filters coated with 50 µg/mL of collagen type VI (Sigma), as previously described. For the invasion assays, collagen-coated filters were further coated with 50 µg/mL Matrigel^TM (Sigma). Briefly, 11 × 10^4 U87-MG, 4 × 10^4 U251-MG, or 4 × 10^4 U138-MG/sample were pre-treated for 40 min at 37 °C with the indicated effectors. Then, the cells were allowed to migrate for 3 h or to invade for 5 h at 37 °C toward 5% FBS in DMEM/0.1% BSA. At the end of both assays, the cells on the lower filter surface were fixed, stained with haematoxylin, and counted under an optical microscope (Zeiss Axiophot, Carl Zeiss, Milan, Italy) at 20× magnification. The migration and invasion experiments were conducted in triplicate for U87-MG and in duplicate for U251-MG and U138-MG. The migrated or invaded cells were reported as percentage of basal migration or invasion in the presence of DMEM/0.1% BSA, taken as 100%, and analyzed as reported in Section 2.11.\nFigure 3 Inhibition of U87-MG, U251-MG, and U138-MG GBM cellular migration by uPAcyclin. Quantitative analysis of U87-MG (A), U251-MG (B), and U138-MG (C) directional migration. A total of 11 × 10^4 U87-MG/sample or 4 × 10^4 U251-MG or U138-MG/sample were pre-treated for 40 min at 37 °C with uPAcyclin or S-peptide at the indicated concentrations, anti-αV polyclonal (anti-αV Pclonal) or monoclonal (anti-αV MoAb) antibody, or anti-GAPDH, and anti-α2 monoclonal antibody (anti-α2 MoAb), and then assayed in Boyden chambers at 37 °C, either for basal (BSA) or directional 5% FBS-dependent migration for 3 h at 37 °C. At the end of incubation, the filters were processed as described in Methods. Basal migration was taken as 100% and all values were calculated relative to that (* p-value < 0.05; ** p-value < 0.005; *** p-value < 0.001)."}, "U87-MG cells [1]": {"system": "U87-MG cells", "experiment": "Boyden chamber Matrigel invasion, U87-MG", "settings": "for invasion, % basal, average expt 1: mean of expt 1", "experimental": "as §1, with “The migration and invasion experiments were conducted in triplicate for U87-MG and in duplicate for U251-MG and U138-MG.” left out\nFigure 4 Effect of uPAcyclin on matrix invasion of U87-MG, U251-MG, and U138-MG GBM cells. Quantitative analysis of U87-MG (A), U251-MG (B), and U138-MG (C) invasion. […] Data are expressed as in the legend to Figure 3. Results are expressed as percentages with respect to the basal invasion, considered as 100% (* p-value < 0.05; ** p-value < 0.005; *** p-value < 0.001)."}, "U87-MG cells [2]": {"system": "U87-MG cells", "experiment": "Cell viability/proliferation (Trypan blue, MTT), U87-MG", "settings": "1 nM or 100 nM, 72–96 h", "experimental": "Cell viability was tested in DMEM/10% FBS, in the presence of 1 nM or 100 nM uPAcyclin, either by Trypan blue exclusion or by thiazolyl blue tetrazolium bromide (MTT) assays, as specified in the figure legends. For the Trypan blue assay, 4 × 10^4 U87-MG, U251-MG, U138-MG, and C6 cells/sample were grown in 12-well plates, and followed for 24, 48 and 72 h. As a negative control, the cells were grown in a serum-free medium. Then, the cells were detached, stained with a 0.2% (w/v) Trypan blue solution, counted using a Burker chamber (T0 = 100%), and reported as number of viable cells/total.\nFor the MTT assay, 5 × 10^3 U87-MG and C6 cells/well were grown in 96-well plates for 24 h and tested as previously described. Briefly, MTT (Invitrogen-Life Technologies, Eugene, OR, USA) 5 mg/mL in a PBS solution was added to wells at a 10% final concentration, and incubated for 3 h at 37 °C, followed by the addition of stop solution (100 µL of DMSO/well) for 1 h at room temperature. Then, the optical densities were measured at 495 nm using the Microplate Reader (Synergy HT, Bio-Tek, Winoosky, VT, USA). The cell viability rate was calculated as a percentage by reporting the mean absorbance of treated groups to control groups, as follows: Cell viability rate (%) = (Atreated group/Acontrol group) × 100."}, "[3]": {"settings": "1 nM, 5% FBS, 3 h, expt 1, duplicates"}, "[4]": {"settings": "1 nM, 5% FBS, 3 h, expt 2, duplicates"}, "[5]": {"settings": "100 nM, 5% FBS, 3 h, expt 1, duplicates"}, "[6]": {"settings": "100 nM, 5% FBS, 3 h, expt 2, duplicates"}, "[7]": {"settings": "100 nM, 5% FBS, 5 h, expt 1, duplicates"}, "[8]": {"settings": "100 nM, 5% FBS, 5 h, expt 2, duplicates"}, "[9]": {"settings": "100 nM, 5% FBS, 5 h, expt 3, duplicates"}, "[10]": {"settings": "1 µM, 5% FBS, 5 h, expt 1, duplicates"}},
  "note": "Several values for one entry are separate records, joined by “and”; a condition that tells them apart may be missing. Equal entries are not always repeated.",
  "data": [
    {"substance": "Ac-K^1P[ESPPEELK^10]-NH2 (sidechain bridge or staple) [uPAcyclin]", "values": [
      {"measurement": "inhibition of migration", "setting": "U138-MG cells; 1 nM, U138-MG, 5% FBS, 3 h", "value": "70–80%"},
      {"measurement": "migrated cells n°/field", "setting": "U138-MG cells; [3]", "value": "8 cells n°/field and 7 cells n°/field"},
      {"measurement": "migration, % of basal", "setting": "U138-MG cells; [3]", "value": "114% and 100%"},
      {"measurement": "migrated cells n°/field", "setting": "U138-MG cells; [4]", "value": "8 cells n°/field and 10 cells n°/field"},
      {"measurement": "migration, % of basal", "setting": "U138-MG cells; [4]", "value": "100% and 125%"},
      {"measurement": "migration, % of basal, average 2 expts", "setting": "U138-MG cells; 1 nM, 5% FBS, 3 h", "value": 110, "unit": "%"},
      {"measurement": "migration, % of basal, average expt 1", "setting": "U138-MG cells; 1 nM, 5% FBS, 3 h", "value": 107, "unit": "%"},
      {"measurement": "migration, % of basal, average expt 2", "setting": "U138-MG cells; 1 nM, 5% FBS, 3 h", "value": 113, "unit": "%"},
      {"measurement": "migration, % of basal, T-test list", "setting": "U138-MG cells; 1 nM", "value": "114 and 100 and 125"},
      {"measurement": "migration, in words", "setting": "U138-MG cells; 100 nM, U138-MG, 5% FBS, 3 h", "value": "below background levels"},
      {"measurement": "migrated cells n°/field", "setting": "U138-MG cells; [5]", "value": "7 cells n°/field and 5 cells n°/field"},
      {"measurement": "migration, % of basal", "setting": "U138-MG cells; [5]", "value": "100% and 71%"},
      {"measurement": "migrated cells n°/field", "setting": "U138-MG cells; [6]", "value": "6 cells n°/field and 7 cells n°/field"},
      {"measurement": "migration, % of basal", "setting": "U138-MG cells; [6]", "value": "75% and 88%"},
      {"measurement": "migration, % of basal, average 2 expts", "setting": "U138-MG cells; 100 nM, 5% FBS, 3 h", "value": 84, "unit": "%"},
      {"measurement": "migration, % of basal, average expt 1", "setting": "U138-MG cells; 100 nM, 5% FBS, 3 h", "value": 86, "unit": "%"},
      {"measurement": "migration, % of basal, average expt 2", "setting": "U138-MG cells; 100 nM, 5% FBS, 3 h", "value": 82, "unit": "%"},
      {"measurement": "migration, % of basal, T-test list", "setting": "U138-MG cells; 100 nM", "value": "100 and 71 and 75 and 88"},
      {"measurement": "reduction in invasion", "setting": "U87-MG cells [1]; 100 nM, U87-MG, 5% FBS, 5 h", "value": "50–60%"},
      {"measurement": "invaded cell number/field", "setting": "U87-MG cells [1]; [7]", "value": "29 cell number/field and 28 cell number/field"},
      {"measurement": "invasion, % of basal", "setting": "U87-MG cells [1]; [7]", "value": "111% and 108%"},
      {"measurement": "invaded cell number/field", "setting": "U87-MG cells [1]; [8]", "value": "28 cell number/field and 29 cell number/field"},
      {"measurement": "invasion, % of basal", "setting": "U87-MG cells [1]; [8]", "value": "117% and 121%"},
      {"measurement": "invaded cell number/field", "setting": "U87-MG cells [1]; [9]", "value": "34 cell number/field and 33 cell number/field"},
      {"measurement": "invasion, % of basal", "setting": "U87-MG cells [1]; [9]", "value": "131% and 127%"},
      {"measurement": "Invasion, %, average 3 expts", "setting": "U87-MG cells [1]; 100 nM, mean of 3 expts", "value": 119, "unit": "%"},
      {"measurement": "invasion, % basal, average expt 1", "setting": "U87-MG cells [1]; 100 nM", "value": 110, "unit": "%"},
      {"measurement": "invasion, % basal, average expt 2", "setting": "U87-MG cells [1]; 100 nM, mean of expt 2", "value": 119, "unit": "%"},
      {"measurement": "invasion, % basal, average expt 3", "setting": "U87-MG cells [1]; 100 nM, mean of expt 3", "value": 129, "unit": "%"},
      {"measurement": "invasion, % of basal, T-test list", "setting": "U87-MG cells [1]; 100 nM, single replicates of 3 expts", "value": "111 and 108 and 117 and 121 and 131 and 127"},
      {"measurement": "invasion, in words", "setting": "U87-MG cells [1]; 1 µM, U87-MG, 5% FBS, 5 h", "value": "reduced invasion to basal levels"},
      {"measurement": "invaded cell number/field", "setting": "U87-MG cells [1]; [10]", "value": "24 cell number/field and 26 cell number/field"},
      {"measurement": "invasion, % of basal", "setting": "U87-MG cells [1]; [10]", "value": "92% and 100%"},
      {"measurement": "Invasion, %, average 3 expts", "setting": "U87-MG cells [1]; 1 µM, headed average 3 expts (only expt 1 has data)", "value": 96, "unit": "%"},
      {"measurement": "invasion, % basal, average expt 1", "setting": "U87-MG cells [1]; 1 µM", "value": 96, "unit": "%"},
      {"measurement": "invasion, % of basal, T-test list", "setting": "U87-MG cells [1]; printed 10 µM, single replicates", "value": "92 and 100"},
      {"measurement": "proliferation/viability", "setting": "U87-MG cells [2]", "value": "unaffected by uPAcyclin, regardless of the concentration employed"}
    ]}
  ]
}
